Key:
Assay type in all cases: in vivo, mouse
[1] = test system: amyloid plaques; experiment: Brain plaque load in hAPP mice (thioflavin S and 6E10 Aβ staining)
Description: For histomorphological analyses, 8 to 15 histological sections (10 μm) were prepared from one hemisphere of 12 animals (6 placebo, 6 CP-113,818; 3 male, 3 female per group). Number and surface area of amyloid plaques were evaluated in both cortex and hippocampus. 6E10 (Signet; 1:5000; monoclonal) as primary antibody, and Cy™3 fluorescent goat anti-mouse IgG as secondary antibody (Jackson Immuno Research) were used for Aβ staining. Sections of the same brains were also used for synaptophysin staining (Chemicon; 1:5000; monoclonal). Synaptophysin immunoreactive spots were counted by light microscopy in the hippocampal CA1 region. The estimation of immunohistochemical reactions was done by computer-assisted quantification (IMAGE PRO PLUS, Media Cybernetics).
Brain plaque load was evaluated by thioflavin S and immunohistochemical stainings (FIG. 3). Thioflavin S-positive plaques were barely detectable in the cortex of hAPP mice at 6.5 months of age and absent in CP-113,818-treated animals (FIG. 2A). […] Individual differences in amyloid load reflected the well-known variability in Aβ accumulation that has been previously observed in transgenic mice, specifically at early stages of pathology (Johnson-Wood et al., 1997; Kawarabayashi et al., 2001). Amyloid load in the cortex of female animals was two-fold higher than in males, in agreement with previous studies in other mouse models of AD (Callahan et al., 2001; Lee et al., 2002; Wang et al., 2003). The hippocampus, slower than the cortex in developing amyloid pathology in hAPP mice, contained significant numbers of Aβ deposits only in female, but not in male, animals (FIG. 3B and FIG. 4). […] Importantly, when the two genders were considered separately, plaque numbers were reduced to an equal extent in females and males, by 89%, p<0.00002, and 88%, p<0.0002, respectively (FIG. 3B). […] In females the decrease was from 0.45 to 0.04 percent plaque load (p<0.00002), while in males it was from 0.10 to 0.02 (p<0.00013; FIG. 4B). As mentioned above, amyloid load in the hippocampus of male animals was too low at this age for reliable assessment of changes caused by CP-113,818.

[2] = test system: APP; experiment: Western blot of APP and fragments in formic acid brain extracts of hAPP mice
Description: For Western blot analyses, frozen hemispheres of non-transgenic littermates were homogenized in TBS buffer containing 5 mM EDTA, 1 mM 1,10-phenanthroline (ICN Biomedicals), 20 μM ALLN (BioMol) and a protease inhibitor mixture (Roche). Homogenates were centrifuged at 100000 g for 1 hour at +4° C. The supernatants were used for analyses of secreted APP forms and ApoE, while the pellets extracted with the homogenization buffer containing 1% Triton X-100 and 0.2% SDS. 120 μg of total protein were resolved on 4-12% or 12% NuPAGE Bis-Tris gels (Invitrogen) under reducing conditions, and Western blots were performed as described previously (Puglielli et al., 2001). For analysis of Notch-ICD (NICD), 250 μg of total protein was immunoprecipitated with an NICD-specific antibody (cleavage site (Val1744)-specific; Cell Signaling Technology) according to manufacturer's recommendations. […] Densitometric analyses were performed using the QuantityOne software package (Bio-Rad). Statistical significance was determined by Student's t test. […]

[3] = test system: endogenous APP; experiment: Western blot of endogenous APP processing in brains of non-transgenic littermates
Description: For Western blot analyses, frozen hemispheres of non-transgenic littermates were homogenized in TBS buffer containing 5 mM EDTA, 1 mM 1,10-phenanthroline (ICN Biomedicals), 20 μM ALLN (BioMol) and a protease inhibitor mixture (Roche). Homogenates were centrifuged at 100000 g for 1 hour at +4° C. The supernatants were used for analyses of secreted APP forms and ApoE, while the pellets extracted with the homogenization buffer containing 1% Triton X-100 and 0.2% SDS. 120 μg of total protein were resolved on 4-12% or 12% NuPAGE Bis-Tris gels (Invitrogen) under reducing conditions, and Western blots were performed as described previously (Puglielli et al., 2001). For analysis of Notch-ICD (NICD), 250 μg of total protein was immunoprecipitated with an NICD-specific antibody (cleavage site (Val1744)-specific; Cell Signaling Technology) according to manufacturer's recommendations. Antibodies used for Western blots were R1736 (specific for sAPP-α; a gift from Dr. D. J. Selkoe, Brigham and Women's Hospital, Boston, Mass.), Abl4 (PS 1-NTF; a gift from Dr. S. E. Gandy, Thomas Jefferson University, Philadelphia, Pa.), Pen2 (a gift from Dr. S. S. Sisodia, University of Chicago, Chicago, Ill.), N-Cadherin (C32, C-terminal; BD Transduction Laboratories), ApoE (Santa Cruz Biotechnology), β-tubulin (Sigma), BACE1 and Nicastrin (Affinity BioReagents). Rbt×APP (CTF), 22C11 (APP-NTF) and Rbt×PSI (PS 1-CTF) were from Chemicon International. BACE stainings (N-terminal; Affinity BioReagents) were confirmed with two additional antibodies; Ms×BACE1 (Chemicon International) and BACE (C-terminal; Affinity BioReagents). Densitometric analyses were performed using the QuantityOne software package (Bio-Rad). Statistical significance was determined by Student's t test. For Western blot analyses shown in supplemental figures, neutralized formic acid fractions (approximately 100 μg of total protein) were precipitated by adding 50% trichloroacetic acid to 15.5% final concentration. After 30 min incubation and centrifugation at 4° C., the pellets were solubilized by adding 10 μl of 2M Tris base and 10 μl of 4×LDS-PAGE loading buffer (NuPage, Invitrogen). Before loading, the samples were incubated for 30 min at 37° C., freeze-thawed once and boiled. Western blot analysis was performed as described above.
Our previous cell-based studies have shown that ACAT inhibition reduces Aβ generation and alters APP processing by all three secretases (Puglielli et al., 2001). To determine whether CP-113,818 treatment modified brain APP processing in hAPP mice, we initially resolved formic acid-extracted brain proteins by SDS-PAGE to detect APP and its proteolytic derivatives. […]

CCCCCCCC[C@H](SCCCCCC)C(=O)Nc1c(SC)cc(C)nc1SC [CP-113,818] was tested, and the “reduction of cortical plaque number, females” value ([1]; female hAPP mice, cortex, 6E10 staining, 57 days) was 89%, the “cortical plaque numbers / Aβ staining at beginning versus end of treatment” value ([1]; female hAPP mice, cortex, day 0 without vs day 57 with treatment) was “remarkably similar” and the “percent plaque load in cortex after treatment, females” value ([1]; female hAPP mice, cortex, placebo 0.45) was 0.04%. For the same compound, the “decrease of plaque number in the hippocampus of female mice” value ([1]; female hAPP mice, hippocampus, 57 days) was 99%, the “percent plaque load in hippocampus after treatment, females” value ([1]; female hAPP mice, hippocampus, placebo 0.295) was 0.09% and the “thioflavin S-positive plaques in the cortex” value ([1]; hAPP mice at 6.5 months of age) was “absent”. For the same compound, the “reduction of cortical plaque number” value ([1]; hAPP mice, all animals, cortex, 6E10 staining, 57 days) was 88%, the “decrease of plaque burden (percent of cortex covered by plaques)” value ([1]; hAPP mice, all animals, cortex, 57 days) was 90% and the “reduction of cortical plaque number, males” value ([1]; male hAPP mice, cortex, 6E10 staining, 57 days) was 88%. The “percent plaque load in cortex after treatment, males” value ([1]; male hAPP mice, cortex, placebo 0.10) was 0.02%, the “full-length APP and APP C-terminal fragments C83 and C99” value [2] was “unchanged” and the “decrease of sAPP levels” value ([2]; adjusted to full-length APP) was 60%. The “decrease in the ratio between total sAPP and sAPPα” value [3] was 36%, the “decrease of endogenous mouse APP-CTF levels” value ([3]; brain lysates, normalized to APP holoprotein, vs placebo) was 44% and the “reduction of total sAPP” value ([3]; soluble TBS fraction) was 19.1%. The “decrease of sAPPα” value ([3]; soluble TBS fraction, trend, n.s.) was 3.4%.

From US20050118226A1, “Methods for treating ACAT-related diseases” (priority 2003, published 2005)
